In patent US11998541B2, “Method for alleviating chronic liver disease using Rosoxacin” (National Yang Ming Chiao Tung University, priority 2022, dated 2024):
“Also recorded” adds a separate entry of the source.

Experiments:
HepG2 cells [1] = experiment: Amount of accumulated lipid droplets in fatty acid-treated HepG2 cells (BODIPY, flow cytometry); assay type: cell-based, human; conditions: FIG. 2
Description: The HepG2 cells prepared in section 1 of “General Experimental Materials” were divided into 6 groups, including a normal control group, two comparative groups (i.e., comparative groups 1 and 2), a pathological control group, and two experimental groups (i.e., experimental groups 1 and 2). Each group of the HepG2 cells was incubated in a respective well of a 24-well culture plate containing 1 mL of DMEM medium at 1.2×10^5 cells/well, followed by cultivation in an incubator with culture conditions set at 37° C., 5% CO2. On the 24th and 48th hours after cultivation, the culture medium in each well was removed, and the cells of the respective group were added with the respective testing agent as shown in Table 2 below. […] After that, the supernatant was poured off, and the pellet was subjected to a fixation treatment with 4% paraformaldehyde (in PBS) for 15 minutes, followed by determining the fluorescence intensity using a flow cytometer (BD Biosciences, Cat. No. BD Accuri C6). The BODIPY was excited by an argon-ion laser (488 nm) to generate fluorescence. The fluorescence intensity was then measured at a wavelength of 504 nm, and 10,000 cells were analyzed each time. The data thus obtained were analyzed using BD Accuri C6 software, so as to obtain the mean fluorescence intensity (MFI) value in each group. […]

male C57BL/6JNarl mice [2] = experiment: High-fat diet induced NAFLD in mice, oral rosoxacin; assay type: in vivo; conditions: for lipid droplets accumulated in liver (hematoxylin-eosin histology) / aspartate transaminase (AST) content in serum / alanine transaminase (ALT) content in serum: HFD; for lipid droplets accumulated in liver (hematoxylin-eosin histology): FIG. 5; for aspartate transaminase (AST) content in serum: FIG. 6; for alanine transaminase (ALT) content in serum: FIG. 7; for liver weight: FIG. 4
Description: The male C57BL/6JNarl mice were randomly divided into a normal control group, a pathological control group, and two experimental groups (i.e., experimental groups 1 and 2) (n=5 per group). The mice in the normal control group were fed ad libitum for a total of 14 weeks with a normal chow diet (NCD) (Altromin, Cat. No. 1320). In addition, the mice in each of the pathological control group and the experimental groups 1 and 2 were fed ad libitum for a total of 14 weeks with a high-fat diet (HFD) (Research Diets, Cat. No. D12492) containing 60% fat, so as to induce NAFLD.
On the 5th week after feeding the diet to the mice in each group as described in section B of this example, the mice in each of the experimental groups 1 and 2 were also fed, via oral gavage, with the rosoxacin solution prepared in section A of this example, at a respective dose of 10 mg/kg per mouse and 50 mg/kg per mouse. In addition, the mice in each of the normal control group and the pathological control group were fed, via oral gavage, with PBS at a volume of 150 μL. Each mouse was fed once every two days until the end of the 14th week after feeding with the diets.
Prior to the feeding of the diets as described in section B of this example (i.e., at the 0th week), on the 1st day of each week after starting the feeding of the diets, and at the end of the 14th week after starting the feeding of the diets, the body weight of each mouse was measured.
After completion of the determination of body weight at the end of the 14th week, the mice in each group were sacrificed using CO2, and blood samples were collected via cardiac puncture at the same time. Each of the blood samples was then subjected to centrifugation at 4° C. under a speed of 1200 g for […], so as to obtain a serum sample. In addition, liver tissue was obtained from each mouse carcass, and then was subjected to weight measurement. The data thus obtained were analyzed according to the procedures as described in section 1 of “General Procedures”.
The liver tissue of each mouse obtained in section D of this example was subjected to a fixation treatment with a 10% paraformaldehyde solution for 24 hours. Next, the fixed liver tissue was subjected to a dehydration treatment performed in sequence using ethanol solutions having concentrations of […], respectively. After that, the dehydrated liver tissue was washed with xylene, and was then embedded with paraffin, followed by slicing, so as to obtain a tissue section having a thickness of 5 μm.
After dewaxing, the tissue section was subjected to hematoxylin-eosin staining using a staining protocol well-known to those skilled in the art, and was then observed under an optical microscope (Leica, Cat. No. DM2500) at a magnification of 20×.
The serum sample of each mouse obtained in section D of this example was subjected to determination of liver function indexes (i.e., aspartate transaminase (AST) and alanine transaminase (ALT)) which was entrusted to Bio-Cando Co., Ltd., so as to assess the degree of liver injury in the mouse. The data thus obtained were analyzed according to the procedures as described in section 1 of “General Procedures”.

α-SMA = experiment: Expression level of α-SMA in fatty acid-treated LX-2 cells (Western blotting); assay type: cell-based, human; conditions: fatty acid mixture + rosoxacin 50 μM (24th, 48th h), 900 μM (72nd h), p<0.0001, FIG. 8
Description: Each group of the LX-2 cells was incubated in a respective well of a 24-well culture plate containing 1 mL of DMEM medium at 1.2×10^5 cells/well, followed by cultivation in an incubator with culture conditions set at 37° C., 5% CO2. On the 24th and 48 th hours after cultivation, the culture medium in each well was removed, and the cells of the respective group were added with the respective testing agent as shown in Table 3 below. In addition, on the 72nd hour after cultivation, the cell culture of the respective group was added with the respective testing agent as shown in Table 3. On the 96th hour after cultivation, the liquid in each well was removed, and the cells were washed with PBS, followed by adding 500 μL of trypsin-EDTA to detach the cells from the bottom of the plate. Subsequently, 1 mL fresh DMEM medium was added to each well to neutralize trypsin activity, followed by centrifugation at 4° C. under a speed of 300 g for 3 minutes, so as to form a supernatant and a pellet. After that, the supernatant was poured off, and the resultant cell pellet was collected. […] The protein concentration in the total protein sample was determined using bicinchoninic acid assay kit (Thermo, Cat. No. 23227) in accordance with the manufacturer's instructions. […] Subsequently, ImageJ Imaging Software was used for semi-quantitatively calculating the corresponding protein expression level. […]

male C57BL/6JNarl mice [3] = experiment: CDAA diet induced NASH / liver fibrosis in mice, oral rosoxacin; assay type: in vivo; conditions: 50 mg/kg oral gavage once every two days, week 3 to 6 of CDAA diet
Description: The male C57BL/6JNarl mice were randomly divided into a normal control group, a pathological control group, and an experimental group (n=6 per group). The mice in the normal control group were fed ad libitum for a total of 6 weeks with a normal chow diet (NCD) (Altromin, Cat. No. 1320). In addition, the mice in each of the pathological control group and the experimental group were fed ad libitum for a total of 6 weeks with a choline deficient L-amino acid defined diet (CDAA) (Research Diets, Cat. No. A21060401) containing 45% fat and 0.2% cholesterol, so as to induce NASH.
On the 3rd week after feeding the diet to the mice in each group as described in the preceding paragraph, the mice in the experimental group were also fed, via oral gavage, with the rosoxacin solution prepared in section A of Example 2, at a dose of 50 mg/kg per mouse. In addition, the mice in each of the normal control group and the pathological control group were fed, via oral gavage, with PBS at a volume of 150 μL. Each mouse was fed once every two days until the end of the 6th week after feeding with the diets. […]
Next, ImageJ Imaging software was used for quantitatively calculating the percentage (%) of Sirius Red-stained area. […] The data thus obtained were analyzed according to the procedures as described in section 1 of “General Procedures”.

HepG2 cells [4] = experiment: Relative amount of accumulated lipid droplets in HepG2 cells, different quinolone antibiotics (BODIPY); assay type: cell-based, human; conditions: fatty acid mixture + antibiotic 50 μM (24th, 48th h), 900 μM (72nd h); FIG. 11
Description: The HepG2 cells prepared in section 1 of “General Experimental Materials” were divided into 7 groups, including a pathological control group, an experimental group, and five comparative groups (i.e., comparative groups 1 to 5). Each group of the HepG2 cells was incubated in a respective well of a 24-well culture plate containing 1 mL of DMEM medium at 1.2×10^5 cells/well, followed by cultivation in an incubator with culture conditions set at 37° C., 5% CO2.
On the 24th and 48th hours after cultivation, the culture medium in each well was removed, and the cells of the respective group were added with the respective testing agent as shown in Table 5 below. […]
The cell suspension of the respective one of the pathological control group, the experimental group, and the comparative groups 1 to 5 obtained in section B of this example was added with 50 μL of BODIPY solution (DMEM containing 13 μg/mL BODIPY 493/504 (Sigma-Aldrich, Cat No. 790389)), followed by placing on ice for 30 minutes in the dark to allow neutral lipid staining to be carried out. […] After that, the supernatant was poured off, and the pellet was subjected to a fixation treatment with 4% paraformaldehyde (in PBS) for 15 minutes, followed by determination of fluorescence intensity using a flow cytometer (BD Biosciences, Cat. No. BD Accuri C6).
The BODIPY was excited by an argon-ion laser (488 nm) to generate fluorescence. […]

[5] = experimental group 1: 10 mg/kg oral gavage once every two days
[6] = experimental group 2: 50 mg/kg oral gavage once every two days

## CCn1cc(C(=O)O)c(=O)c2ccc(-c3ccncc3)cc21 [rosoxacin, 1-ethyl-4-oxo-7-(4-pyridyl)-1,4-dihydroquinoline-3-carboxylic acid]
HepG2 cells [1]; experimental group 1: fatty acid mixture + rosoxacin 10 μM (24th, 48th h), 180 μM (72nd h)
  mean fluorescence intensity (MFI) value (accumulated lipid droplets): lower than that of the pathological control group
HepG2 cells [1]; experimental group 2: fatty acid mixture + rosoxacin 50 μM (24th, 48th h), 900 μM (72nd h), p<0.001
  mean fluorescence intensity (MFI) value (accumulated lipid droplets): significantly lower than that determined in the pathological control group
Male C57BL/6JNarl mice [2]; [5]
  lipid droplets accumulated in liver (hematoxylin-eosin histology): significantly lower than those in the pathological control group
  aspartate transaminase (AST) content in serum: apparently or significantly lower than those determined in the pathological control group
  alanine transaminase (ALT) content in serum: apparently or significantly lower than those determined in the pathological control group
Male C57BL/6JNarl mice [2]; experimental group 1: 10 mg/kg oral gavage once every two days, week 5 to 14 of HFD, 10 mg/kg
  liver weight: apparently or significantly lower than that determined in the pathological control group
Male C57BL/6JNarl mice [2]; [6]
  lipid droplets accumulated in liver (hematoxylin-eosin histology): significantly lower than those in the pathological control group
  aspartate transaminase (AST) content in serum: apparently or significantly lower than those determined in the pathological control group
Male C57BL/6JNarl mice [2]; experimental group 2: 50 mg/kg oral gavage once every two days, p<0.05
  alanine transaminase (ALT) content in serum: significantly lower than that determined in the pathological control group
Male C57BL/6JNarl mice [2]; experimental group 2: 50 mg/kg oral gavage once every two days, week 5 to 14 of HFD, 50 mg/kg
  liver weight: apparently or significantly lower than that determined in the pathological control group; also recorded: even lower than that of the normal control group
Male C57BL/6JNarl mice [2]; experimental group 2: 50 mg/kg oral gavage once every two days, week 5 to 14 of HFD, p<0.05, FIG. 3
  body weight: significantly lower than that determined in the pathological control group
α-SMA
  expression level of α-SMA (normalized to β-actin): significantly lower than that determined in the pathological control group; also recorded: even lower than that determined in the normal control group
Male C57BL/6JNarl mice [3]; FIG. 9
  lipid droplets accumulated in liver (hematoxylin-eosin histology): significantly less than those in the pathological control group
Male C57BL/6JNarl mice [3]; p<0.0001, FIG. 10
  percentage of Sirius Red-stained area: significantly lower than that determined in the pathological control group
HepG2 cells [4]
  relative percentage of MFI value (pathological control group = 100%): significantly lower than that determined in the pathological control group
